Results taken from the NIST ThermoML archive (doi:10.1016/j.fluid.2006.06.017).
± gives the expanded uncertainty stated by the source.

Key:
[1] = refractive index (Na D-line) (dimensionless); conditions: 298.15 K; 101.33 kPa; Liquid; Standard Abbe refractometry
[2] = Liquid; for mass density: 298.15 K, 101.33 kPa; for vapor or sublimation pressure: Ebulliometric method (Recirculating still)

CCCO [propan-1-ol]
Conditions	mass density [kg/m3]	refractive index
[1]	–	1.3836 ± 0.0005
[2]	799.62 ± 0.48	–

[2]
Conditions	vapor or sublimation pressure [kPa]
332.63 K	20 ± 1
369.75 K	101.3 ± 0.2

CCCCO [butan-1-ol]
Conditions	mass density [kg/m3]	refractive index
[1]	–	1.3976 ± 0.0005
[2]	805.65 ± 0.22	–

[2]
Conditions	vapor or sublimation pressure [kPa]
351.18 K	20 ± 1
390.75 K	101.3 ± 0.2

CCCOCCC [dipropyl ether]
Conditions	mass density [kg/m3]	refractive index
[1]	–	1.3784 ± 0.0005
[2]	741.81 ± 0.56	–

[2]
Conditions	vapor or sublimation pressure [kPa]
302.6 K	10.47 ± 0.2
306.36 K	12.43 ± 0.2
310.41 K	14.95 ± 0.2
313.39 K	16.91 ± 0.2
315.97 K	18.97 ± 0.2
317.33 K	20 ± 1
318.45 K	20.97 ± 0.2
320.69 K	22.93 ± 0.2
323.79 K	25.95 ± 0.2
326.58 K	28.97 ± 0.21
329.15 K	31.95 ± 0.21
331.52 K	34.95 ± 0.21
333.76 K	37.95 ± 0.21
335.79 K	40.9 ± 0.21
337.8 K	43.95 ± 0.21
339.62 K	46.85 ± 0.21
341.27 K	49.7 ± 0.21
343.07 K	52.91 ± 0.22
345.22 K	56.95 ± 0.22
347.19 K	60.85 ± 0.22
349.07 K	64.87 ± 0.22
351.36 K	69.9 ± 0.22
353.45 K	74.84 ± 0.23
355.48 K	79.91 ± 0.23
357.37 K	84.8 ± 0.23
359.21 K	89.75 ± 0.23
360.93 K	94.65 ± 0.24
363.16 K	101.3 ± 0.24
